Assay results: patent publication US20240376176A1 (priority 2021, published 2024)
Where a name gives a salt, the structure may show the parent alone.

Legend:
sciatic nerve = conditions: rat, in vivo
[1] = tested on: sciatic nerves and adjacent tissues; conditions: rat, in vivo
[2] = biological target: natural sodium channel proteins; conditions: cited from earlier work

SMILES: CCCCN1CCCCC1C(=O)Nc1c(C)cccc1C (stereo not drawn) [Free Bup, bupivacaine hydrochloride]
- Duration of nerve block (sciatic nerve): 2.4 ± 0.3 h

SMILES: NC1=N[C@H](O)[C@H]2[C@H]3O[C@]4(O)O[C@@H]([C@@H](O)[C@@]2(N1)[C@@H]4O)[C@]3(O)CO [Free TTX, tetrodotoxin]
- Inflammation Score (range) Day 4 [1]: 0.5
- Inflammation Score (range) Day 14 [1]: 0 (0-1.0)
- Myotoxicity Score (range) Day 4 [1]: 0 (0-1.0)
- Myotoxicity Score (range) Day 14 [1]: 0 (0-1.0)
- Kd [2]: ~1.3 nM
